Biological target: T1, wild-type HIV-1 protease (Human immunodeficiency virus type 1 group M subtype B, UniProt P04585)
T1 construct: Escherichia coli expressed wild-type HIV-1 protease protein
Experiment: Assay for Inhibition of Microbial Expressed HIV Protease (peptide substrate cleavage, LC-MS/MS readout)
Type: biochemical
Conditions: E. coli expressed wild-type HIV-1 protease, mean of at least two independent experiments, read-out: HIV Pr Enzyme HIV1 PR IC50
Procedure, shortened: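 E. coli-expressed wild-type HIV-1 protease ([…]) was preincubated with inhibitor 30 min at room temperature in pH 5.5 acetate buffer (100 mM NaCl, 0.1% BSA). Then 400 μM octapeptide substrate was added and reacted 1 h at 30 °C; inhibition came from LC-MS/MS product peak areas, mean of ≥2 experiments.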

SMILES | IC50
CSc1nnc2n1CCN(C(=O)c1cccc(CN3C(=N)NC(c4ccccc4)(c4ccccc4)C3=O)c1)C2 [Compound 246, 2-imino-3-(3-{[3-(methylsulfanyl)-5,6-dihydro[1,2,4]triazolo[4,3-a]pyrazin-7(8H)-yl]carbonyl}benzyl)-5,5-diphenylimidazolidin-4-one] | 17.5 nM
CCOC(=O)c1nc2n(c1Cl)CCN(C(=O)c1cccc(CN3C(=N)NC(c4ccccc4)(c4ccccc4)C3=O)c1)C2 [Compound 247, ethyl 3-chloro-7-({3-[(2-imino-5-oxo-4,4-diphenylimidazolidin-1-yl)methyl]phenyl}carbonyl)-5,6,7,8-tetrahydroimidazo[1,2-a]pyrazine-2-carboxylate] | 17.9 nM
N=C1NC(c2ccc(F)cc2)(c2ccccn2)C(=O)N1Cc1cccc(C(=O)N2Cc3[nH]nc(C(F)(F)F)c3C2)c1 (centres unmarked) [Compound 248, 5-(4-fluorophenyl)-2-imino-5-pyridin-2-yl-3-(3-{[3-(trifluoromethyl)-4,6-dihydropyrrolo [3,4-c]pyrazol-5(1H)-yl]carbonyl}benzyl) imidazolidin-4-one] | 18 nM
CC(C)CCC1(c2ccccc2)NC(=N)N(Cc2cccc(C(=O)N3Cc4nccnc4C3)c2)C1=O (centres unmarked) [Compound 249, 3-[3-(5,7-dihydro-6H-pyrrolo[3,4-b]pyrazin-6-ylcarbonyl)benzyl]-2-imino-5-(3-methylbutyl)-5-phenylimidazolidin-4-one] | 18.1 nM
N=C1NC(c2ccccc2)(c2ccccc2)C(=O)N1Cc1cccc(C(=O)N2CCn3cc(C(=O)C4CC4)nc3C2)c1 [Compound 250, 3-(3-{[2-(cyclopropylcarbonyl)-5,6-dihydroimidazo [1,2-a]pyrazin-7(8H)-yl]carbonyl}benzyl)-2-imino-5,5-diphenylimidazolidin-4-one] | 18.9 nM
CNC(=O)c1nc2n(c1Cl)CCN(C(=O)c1cccc(CN3C(=N)NC(c4ccccc4)(c4ccccc4)C3=O)c1)C2 [Compound 251, 3-chloro-7-({3-[(2-imino-5-oxo-4,4-diphenylimidazolidin-1-yl)methyl]phenyl}carbonyl)-N-methyl-5,6,7,8-tetrahydroimidazo[1,2-a]pyrazine-2-carboxamide] | 19.2 nM
CC(C)CCC1(c2ccc(F)cc2)NC(=N)N(Cc2cccc(C(=O)N3Cc4nccnc4C3)c2)C1=O (centres unmarked) [Compound 252, 3-[3-(5,7-dihydro-6H-pyrrolo[3,4-b]pyrazin-6-ylcarbonyl)benzyl]-5-(4-fluorophenyl)-2-imino-5-(3-methylbutyl)imidazolidin-4-one] | 19.8 nM
CC(C)CC1(c2ccccc2)NC(=N)N(Cc2cccc(C(=O)N3Cc4cncnc4C3)c2)C1=O (centres unmarked) [Compound 253, 3-[3-(5,7-dihydro-6H-pyrrolo[3,4-d]pyrimidin-6-ylcarbonyl)benzyl]-2-imino-5-(2-methylpropyl)-5-phenylimidazolidin-4-one] | 20.1 nM
Cc1ncc2c(n1)CN(C(=O)c1cccc(CN3C(=N)NC(c4ccc(F)cc4)(c4ccc(F)cc4)C3=O)c1)C2 [Compound 254, 5,5-bis(4-fluorophenyl)-2-imino-3-{3-[(2-methyl-5,7-dihydro-6H-pyrrolo[3,4-d]pyrimidin-6-yl)carbonyl]benzyl} imidazolidin-4-one] | 20.2 nM
COC(=O)N1CCN(C(=O)c2cccc(CN3C(=N)NC(CCC(C)C)(c4ccccc4)C3=O)c2)CC1 (centres unmarked) [Compound 255, methyl 4-[(3-{[2-imino-4-(3-methylbutyl)-5-oxo-4-phenylimidazolidin-1-yl]methyl}phenyl)carbonyl] piperazine-1-carboxylate] | 20.9 nM
N=C1NC(c2ccc(F)cc2)(c2ccccn2)C(=O)N1Cc1cccc(C(=O)N2Cc3ccccc3C2)c1 (centres unmarked) [Compound 256, 3-[3-(1,3-dihydro-2H-isoindol-2-ylcarbonyl)benzyl]-5-(4-fluorophenyl)-2-imino-5-pyridin-2-ylimidazolidin-4-one] | 21.1 nM
Cc1nc2c([nH]1)CN(C(=O)c1cccc(CN3C(=N)NC(CCC(C)C)(c4ccccc4)C3=O)c1)C2 (centres unmarked) [Compound 257, 2-imino-5-(3-methylbutyl)-3-{3-[(2-methyl-4,6-dihydropyrrolo[3,4-d]imidazol-5(1H)-yl)carbonyl]benzyl}-5-phenylimidazolidin-4-one] | 21.2 nM
N=C1NC(c2ccccc2)(c2ccccc2)C(=O)N1Cc1cc(F)cc(C(=O)N2Cc3cncnc3C2)c1 [Compound 258, 3-[3-(5,7-dihydro-6H-pyrrolo[3,4-d]pyrimidin-6-ylcarbonyl)-5-fluorobenzyl]-2-imino-5,5-diphenylimidazolidin-4-one] | 22.1 nM
CC(C)CC1(c2ccccc2)NC(=N)N(Cc2cccc(C(=O)N3Cc4cccnc4C3)c2)C1=O (centres unmarked) [Compound 259, 3-[3-(5,7-dihydro-6H-pyrrolo[3,4-b]pyridin-6-ylcarbonyl)benzyl]-2-imino-5-(2-methylpropyl)-5-phenylimidazolidin-4-one] | 22.6 nM
N=C1NC(c2ccccc2)(c2ccccc2)C(=O)N1Cc1cccc(C(=O)N2CCN(C(=O)OCc3ccccc3)CC2)c1 [Compound 260, benzyl 4-({3-[(2-imino-5-oxo-4,4-diphenylimidazolidin-1-yl)methyl]phenyl}carbonyl) piperazine-1-carboxylate] | 23.2 nM
CC(C)C[C@]1(c2ccccc2)NC(=N)N([C@H](C)c2cccc(C(=O)N3Cc4cncnc4C3)c2)C1=O [Compound 261, 3-{(1R)-1-[3-(5,7-dihydro-6H-pyrrolo[3,4-d]pyrimidin-6-ylcarbonyl)phenyl]ethyl}-2-imino-5-(2-methylpropyl)-5-phenylimidazolidin-4-one] | 23.5 nM
N#Cc1cccc(C2(c3ccc(F)cc3)NC(=N)N(Cc3cccc(C(=O)N4Cc5ccccc5C4)c3)C2=O)c1 (centres unmarked) [Compound 262, 3-{1-[3-(1,3-dihydro-2H-isoindol-2-ylcarbonyl)benzyl]-4-(4-fluorophenyl)-2-imino-5-oxoimidazolidin-4-yl}benzonitrile] | 24.4 nM
CCC(c1cccc(C(=O)N2Cc3cncnc3C2)c1)N1C(=N)NC(c2ccccc2)(c2ccccc2)C1=O (centres unmarked) [Compound 263, 3-{1-[3-(5,7-dihydro-6H-pyrrolo[3,4-d]pyrimidin-6-ylcarbonyl)phenyl]propyl}-2-imino-5,5-diphenylimidazolidin-4-one] | 24.7 nM
CC(C)CC1(c2cccc(F)c2)NC(=N)N(Cc2cccc(C(=O)N3Cc4ccccc4C3)c2)C1=O (centres unmarked) [Compound 264, 3-[3-(1,3-dihydro-2H-isoindol-2-ylcarbonyl)benzyl]-5-(3-fluorophenyl)-2-imino-5-(2-methylpropyl) imidazolidin-4-one] | 24.8 nM
CC(C)CCC1(c2cccc(F)c2)NC(=N)N(Cc2cccc(C(=O)N3Cc4nccnc4C3)c2)C1=O (centres unmarked) [Compound 265, 3-[3-(5,7-dihydro-6H-pyrrolo[3,4-b]pyrazin-6-ylcarbonyl)benzyl]-5-(3-fluorophenyl)-2-imino-5-(3-methylbutyl)imidazolidin-4-one] | 24.8 nM
CC(c1cccc(C(=O)N2Cc3cncnc3C2)c1)N1C(=N)NC(c2ccccc2)(c2ccccc2)C1=O (centres unmarked) [Compound 266, 3-{1-[3-(5,7-dihydro-6H-pyrrolo[3,4-b]pyrazin-6-ylcarbonyl)phenyl]ethyl}-2-imino-5.5-diphenylimidazolidin-4-one] | 26.1 nM
N=C1NC(c2ccc(F)cc2)(c2ccc(F)cc2)C(=O)N1Cc1cccc(C(=O)N2CCN(C(=O)c3ccco3)CC2)c1 [Compound 267, 5,5-bis(4-fluorophenyl)-3-(3-{[4-(furan-2-ylcarbonyl)piperazin-1-yl]carbonyl}benzyl)-2-iminoimidazolidin-4-one] | 26.3 nM
CC(C)CC1(c2ccccc2)NC(=N)N(Cc2cccc(C(=O)N3CCN(C(=O)c4ccco4)CC3)c2)C1=O (centres unmarked) [Compound 268, 3-(3-{[4-(furan-2-ylcarbonyl)piperazin-1-yl]carbonyl}benzyl)-2-imino-5-(2-methylpropyl)-5-phenylimidazolidin-4-one] | 26.8 nM
N=C1NC(c2ccccc2)(c2ccccc2)C(=O)N1Cc1cccc(C(=O)N2CCc3ccc(F)cc3C2)c1 [Compound 269, 3-{3-[(7-fluoro-3,4-dihydroisoquinolin-2(1H)-yl)carbonyl]benzyl}-2-imino-5,5-diphenylimidazolidin-4-one] | 26.9 nM
CC(C)CCC1(c2cccc(F)c2)NC(=N)N(Cc2cccc(C(=O)N3Cc4ccccc4C3)c2)C1=O (centres unmarked) [Compound 270, 3-[3-(1,3-dihydro-2H-isoindol-2-ylcarbonyl)benzyl]-5-(3-fluorophenyl)-2-imino-5-(3-methylbutyl)imidazolidin-4-one] | 27 nM
N=C1NC(c2ccccc2)(c2ccccc2)C(=O)N1Cc1cccc(C(=O)N2Cc3cc(Cl)c(Cl)cc3C2)c1 [Compound 271, 3-{3-[(5,6-dichloro-1,3-dihydro-2H-isoindol-2-yl)carbonyl]benzyl}-2-imino-5,5-diphenylimidazolidin-4-one] | 27.9 nM
CC(C)CC[C@]1(c2ccccc2)NC(=N)N([C@H](C)c2cccc(C(=O)N3CCN(C)C(=O)C3)c2)C1=O [Compound 272, 4-[(3-{(1R)-1-[2-imino-4-(3-methylbutyl)-5-oxo-4-phenylimidazolidin-1-yl]ethyl}phenyl)carbonyl]-1-methylpiperazin-2-one] | 28.3 nM
N=C1NC(c2ccccc2)(c2ccc(-c3ccccc3)cc2)C(=O)N1Cc1cccc(C(=O)N2Cc3ccccc3C2)c1 (centres unmarked) [Compound 273, 5-biphenyl-4-yl-3-[3-(1,3-dihydro-2H-isoindol-2-ylcarbonyl)benzyl]-2-imino-5-phenylimidazolidin-4-one] | 28.5 nM
Cc1nc2c([nH]1)CN(C(=O)c1cccc(CN3C(=N)NC(CC(C)C)(c4ccccc4)C3=O)c1)C2 (centres unmarked) [Compound 274, 2-imino-3-{3-[(2-methyl-4,6-dihydropyrrolo[3,4-d]imidazol-5(1H)-yl)carbonyl]benzyl}-5-(2-methylpropyl)-5-phenylimidazolidin-4-one] | 28.8 nM

— patent US20200069691A1, “HETEROCYCLIC COMPOUNDS AS HIV PROTEASE INHIBITORS” (Merck Sharp & Dohme Corp., priority 2016, published 2020)
